Experimental data: article PMC3914206

What was measured:
panel of 442 kinases [1] = target: T1, panel of 442 kinases (Homo sapiens, UniProt O14976); type: binding; details: Compound Concentration 10 µM
T1 construct: purchased KINOMEscan
T1 sequence (O14976 1-1311): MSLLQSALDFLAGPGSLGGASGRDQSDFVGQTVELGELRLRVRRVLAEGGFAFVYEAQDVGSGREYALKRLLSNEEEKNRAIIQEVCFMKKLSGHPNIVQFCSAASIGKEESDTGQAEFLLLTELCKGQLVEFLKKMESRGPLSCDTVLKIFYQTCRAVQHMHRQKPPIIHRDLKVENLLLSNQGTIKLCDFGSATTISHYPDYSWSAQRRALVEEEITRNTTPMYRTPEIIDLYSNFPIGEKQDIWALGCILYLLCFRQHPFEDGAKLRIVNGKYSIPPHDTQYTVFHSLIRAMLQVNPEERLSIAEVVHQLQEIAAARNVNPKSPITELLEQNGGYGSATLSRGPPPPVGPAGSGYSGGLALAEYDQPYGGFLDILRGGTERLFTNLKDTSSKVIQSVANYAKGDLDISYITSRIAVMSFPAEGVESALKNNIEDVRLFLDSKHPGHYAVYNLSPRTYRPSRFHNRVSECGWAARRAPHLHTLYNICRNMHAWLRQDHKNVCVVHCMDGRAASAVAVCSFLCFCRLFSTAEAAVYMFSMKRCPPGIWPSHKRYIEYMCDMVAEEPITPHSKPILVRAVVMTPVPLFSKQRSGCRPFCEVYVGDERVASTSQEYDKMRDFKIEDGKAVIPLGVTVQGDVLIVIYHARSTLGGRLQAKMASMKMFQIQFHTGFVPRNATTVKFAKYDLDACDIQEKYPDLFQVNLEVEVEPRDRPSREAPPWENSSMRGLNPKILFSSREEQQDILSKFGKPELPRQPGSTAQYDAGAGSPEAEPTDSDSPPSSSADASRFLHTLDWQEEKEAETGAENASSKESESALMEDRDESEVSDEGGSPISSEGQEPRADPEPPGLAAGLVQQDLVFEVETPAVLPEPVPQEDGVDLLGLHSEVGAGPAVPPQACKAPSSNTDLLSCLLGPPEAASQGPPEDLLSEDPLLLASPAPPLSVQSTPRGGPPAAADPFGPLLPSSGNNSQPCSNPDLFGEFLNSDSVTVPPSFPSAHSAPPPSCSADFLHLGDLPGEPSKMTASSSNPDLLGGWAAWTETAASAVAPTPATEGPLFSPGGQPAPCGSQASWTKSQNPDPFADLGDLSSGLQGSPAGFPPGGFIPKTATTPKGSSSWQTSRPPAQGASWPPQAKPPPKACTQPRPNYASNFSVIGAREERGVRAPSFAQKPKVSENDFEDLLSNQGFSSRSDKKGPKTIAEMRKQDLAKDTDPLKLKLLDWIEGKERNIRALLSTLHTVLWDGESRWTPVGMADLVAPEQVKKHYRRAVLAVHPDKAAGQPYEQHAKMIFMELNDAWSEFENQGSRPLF
Description: (§1) We assessed the selectivity of members of this scaffold using the KINOMEscan methodology across a near comprehensive panel of 442 kinases [[18,27]].

panel of 442 kinases [2] = target: T2, panel of 442 kinases (Homo sapiens, UniProt Q14680); type: binding; details: Compound Concentration 10 µM
T2 construct: purchased KINOMEscan
T2 sequence (Q14680 whole entry): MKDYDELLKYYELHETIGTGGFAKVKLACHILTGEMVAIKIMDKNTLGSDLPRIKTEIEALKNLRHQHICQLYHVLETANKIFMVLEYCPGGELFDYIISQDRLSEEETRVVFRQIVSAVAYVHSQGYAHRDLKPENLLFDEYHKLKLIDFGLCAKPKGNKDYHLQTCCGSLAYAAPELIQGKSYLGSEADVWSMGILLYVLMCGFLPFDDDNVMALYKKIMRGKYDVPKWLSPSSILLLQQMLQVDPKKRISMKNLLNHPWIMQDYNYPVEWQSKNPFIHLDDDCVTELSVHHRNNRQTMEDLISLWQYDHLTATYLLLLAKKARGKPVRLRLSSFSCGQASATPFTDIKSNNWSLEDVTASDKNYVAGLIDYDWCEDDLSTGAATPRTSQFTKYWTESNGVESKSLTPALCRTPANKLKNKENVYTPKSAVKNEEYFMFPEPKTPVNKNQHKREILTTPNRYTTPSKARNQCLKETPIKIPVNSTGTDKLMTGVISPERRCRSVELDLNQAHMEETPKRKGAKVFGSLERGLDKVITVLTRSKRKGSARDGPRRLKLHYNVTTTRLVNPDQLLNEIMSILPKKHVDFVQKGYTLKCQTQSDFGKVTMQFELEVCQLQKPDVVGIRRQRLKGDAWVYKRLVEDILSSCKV
Description: as §1

Compound	KINOMEscan: GAK (panel of 442 kinases [1])	KINOMEscan: MELK (panel of 442 kinases [2])
COc1cc(C(=O)N2CCC(N3CCN(C)CC3)CC2)ccc1Nc1ncc2c(n1)N(C)c1ccccc1C(=O)N2C [15 (LRRK2-IN-1)]	16	100
COc1cc(C(=O)N2CCC(N3CCN(C)CC3)CC2)ccc1Nc1ncc2c(n1)N1CCc3cccc(c31)C(=O)N2C [Compound 24]	19	62
COc1cc(C(=O)N2CCC(N3CCN(C)CC3)CC2)ccc1Nc1ncc2c(n1)N(C1CCCC1)c1ccccc1C(=O)N2C [Compound 25, 11-cyclopentyl-2-((2-methoxy-4-(4-(4-methylpiperazin-1-yl)piperidine-1-carbonyl)phenyl)amino)-5-methyl-5H-benzo[e]pyrimido[5,4-b][1,4]diazepin-6(11H)-one]	82	100
CCOc1cc(C(=O)N2CCC(N3CCN(C)CC3)CC2)ccc1Nc1ncc2c(n1)N(C1CCCC1)c1ccccc1C(=O)N2C [Compound 26]	100	100
